Results on 14 compounds are retold here after ChEMBL document CHEMBL5370630, “Design, Synthesis, and Biological Evaluation of SSE1806, a Microtubule Destabilizer That Overcomes Multidrug Resistance” (2023).

Structures are written as SMILES. The source made the active and inactive calls. The rule behind the calls is not given here.

Experiment [1] concerns KB 3-1. The experiment in a line: Induction of apoptosis in human KB-3-1 cells assessed as increase in PARP cleavage at 100 uM incubated for 24 hrs by Western blot analysis. Format: functional, cell-based. (In western blotting, separated proteins are transferred to a membrane and probed.)
Experiment [2] in a line: Resistance index, ratio of GI50 for multidrug resistant human KB-V1 cells to GI50 for human KB-3-1 cells. The experiment is classed as functional.
Experiment [3] concerns KB-V1. Description: Cytotoxicity against multidrug resistant human KB-V1 cells assessed as inhibition of cell proliferation. The experiment is classed as functional.
The subject of experiment [4] is KB 3-1. The experiment in a line: Cytotoxicity against human KB-3-1 cells assessed as inhibition of cell proliferation. The experiment is classed as functional.
Experiment [5] relates to CAL-51. The experiment in a line: Antiproliferative activity against human CAL-51 cells incubated for 72 hrs by SRB proliferation assay. The experiment is classed as functional. (The SRB assay estimates cell density from bound dye.)
Experiment [6] relates to HCT-116. Description: Antiproliferative activity against human HCT-116 cells incubated for 72 hrs by SRB proliferation assay. The experiment is classed as functional.
Experiment [7] has as its system CAL-51. The experiment in a line: Induction of mitotic arrest in human CAL-51 cells assessed as upregulation of histone H3 phosphorylation at S10 residue at 25 uM incubated for 8 hrs by dot blot assay. The experiment is classed as functional, cell-based.
The target in experiment [8] is T1, Tubulin (Homo sapiens) (UniProt P68371+Q9H4B7+P0DPH7+P68366+Q13509+Q71U36+P04350+Q3ZCM7+P07437+P68363+Q9BQE3+Q6PEY2+Q13885+Q9BVA1+Q9BUF5). Description: Inhibition of microtubule polymerization in human HCT-116 cells assessed as increase in soluble tubulin level at 1.25 to 5 times GI50 incubated for 5 mins by immunoblot analysis. Format: cell-based.
For experiment [9], the target named is T1, Tubulin (Homo sapiens). The experiment in a line: Inhibition of microtubule polymerization in human HCT-116 cells assessed as decrease in polymeric tubulin level at 1.25 to 5 times GI50 incubated for 5 mins by immunoblot analysis. Format: cell-based.
Experiment [10] concerns the target T1, Tubulin (Homo sapiens). Description: Inhibition of microtubule re-polymerization in human A549 cells at 5 times GI50 preincubated for 30 min on ice followed by incubation at 37 degreeC for 10 mins by immunofluorescence analysis. Format: cell-based. The conditions noted are these: time 40.0 min.
In experiment [11] the test system is MCF7. The experiment in a line: Antitumor activity against human MCF7 cells by MTS assay. The experiment is classed as functional. In general terms: Tetrazolium assays rely on reduction of a dye to a coloured formazan, in cell work by metabolically active cells.
For experiment [12], the system named is HCT-116. Description: Induction of apoptosis in human HCT-116 cells assessed as increase in PARP cleavage at 1.25 to 5 times GI50 incubated for 24 to 36 hrs by Western blot analysis. The experiment is classed as functional, cell-based. The following applies: time 24-36 hrs.
A short description of experiment [13]: Anticancer activity against mouse colon cancer organoids expressing Apc fl/fl-Kras G12D-Tp53 KO-Smad4 KO assessed as inhibition of cell viability measured after 4 days by Cell Titer Glo assay. The experiment is classed as functional. The following applies: Colon cancer organoid, 96 h, time 4 day.
The nature of experiment [14]: Anticancer activity against human colon cancer organoids assessed as inhibition of cell viability measured after 4 days by Cell Titer Glo assay. Format: functional. The conditions noted are these: Colon cancer organoid, 96 h, time 4 day.
The test system of experiment [15] is BT-549. The experiment in a line: Antitumor activity against human BT-549 cells by MTS assay. Format: functional.
The subject of experiment [16] is KB-V1. Description: Inhibition of P-gp in human KB-V1 cells at 5 uM by calcein AM efflux assay. Format: functional, cell-based.
Experiment [17] deals with KB 3-1. The experiment in a line: Antitumor activity against human KB-3-1 cells by MTS assay. Format: functional.
For experiment [18], the system named is A549. The experiment in a line: Induction of mitotic cell arrest in human A549 cells assessed as chromosome misalignment at 5 times GI50 incubated for 24 hrs by immunofluorescence based confocal microscopic analysis. The experiment is classed as functional.
Experiment [19] concerns HCT-116. The experiment in a line: Induction of cell cycle arrest in human HCT-116 cells accumulation of cells at G2/M phase incubated for 12 hrs by PI staining based flow cytometry analysis. The experiment is classed as functional.
Experiment [20] concerns K562. Description: Antitumor activity against human K562 cells by MTS assay. Format: functional.
The test system of experiment [21] is HCT-116. The experiment in a line: Induction of apoptosis in human HCT-116 cells assessed as increase in p53 expression at 1.25 to 5 times GI50 incubated for 24 to 36 hrs by Western blot analysis. The experiment is classed as functional, cell-based. The conditions noted are these: time 24-36 hrs.
For experiment [22], the system named is HCT-116. Description: Induction of apoptosis in human HCT-116 cells assessed as increase in apoptotic cell death at 2.5 to 5 times GI50 incubated for 24 hrs by Annexin V/PI staining based flow cytometric analysis. The experiment is classed as functional.
For experiment [23], the system named is HCC1954. The experiment in a line: Antitumor activity against human HCC1954 cells by MTS assay. The experiment is classed as functional.
In experiment [24] the test system is MV4-11. Description: Antitumor activity against human MV4-11 cells by MTS assay. Format: functional.
Experiment [25] concerns KB 3-1. The experiment in a line: Induction of apoptosis in human KB-3-1 cells assessed as increase in PARP cleavage at 1.25 to 5 uM incubated for 24 hrs by Western blot analysis. Format: functional, cell-based. The following applies: dose 1.25-5 µM.
In experiment [26] the target is T1, Tubulin (Homo sapiens). The experiment in a line: Inhibition of microtubule polymerization (unknown origin) at 10 uM incubated for 1 hr by turbidimetric assay relative to control. The experiment is classed as protein-complex assay.
Experiment [27] concerns MOLM-13. The experiment in a line: Antitumor activity against human MOLM-13 cells by MTS assay. The experiment is classed as functional.
Experiment [28] deals with HCT-116. The experiment in a line: Induction of mitotic arrest in human HCT-116 cells assessed as upregulation of histone H3 phosphorylation at S10 residue at 1.25 to 5 times GI50 measured for 8 to 16 hrs by Western blot analysis. Format: functional, cell-based. The following applies: time 8-16 hrs.
Experiment [29] relates to KB-V1. Description: Induction of apoptosis in multidrug resistant human KB-V1 cells assessed as increase in PARP cleavage at 1.25 to 5 uM incubated for 24 hrs by Western blot analysis. The experiment is classed as functional, cell-based. The following applies: dose 1.25-5 µM.
The test system of experiment [30] is A549. Description: Induction of mitotic arrest in human A549 cells assessed as increase in mitotic index by measuring histone H3 phosphorylation at S10 residue at 5 times GI50 incubated for 24 hrs by immunofluorescence analysis. Format: functional, cell-based.
Experiment [31] relates to A549. The experiment in a line: Induction of mitotic cell arrest in human A549 cells assessed as defective spindles at 5 times GI50 incubated for 24 hrs by immunofluorescence based confocal microscopic analysis. Format: functional.

In general, GI50 refers to the concentration at which growth is held to half of that of the control.

Regarding `CC(=O)O[C@H]1C(=O)[C@@]2(C)[C@H]([C@H](OC(=O)c3ccccc3)[C@]3(O)C[C@H](OC(=O)[C@H](O)[C@@H](NC(=O)c4ccccc4)c4ccccc4)C(C)=C1C3(C)C)[C@]1(OC(C)=O)CO[C@@H]1C[C@@H]2O` [PACLITAXEL], the outcome in experiment [1] was Active. Also, in [2], the RatioGI50 turned out to be 193.51. Besides, the GI50 was 0.432 µM in experiment [3] and 0.00223 µM in experiment [4].

As for `CN1C2=C(C(=O)CCC2)C(c2ccc(Br)cc2)c2cc3c(cc21)OCCO3` (stereo unspecified), the results for the GI50 in [5] and in experiment [6] were 23.7 µM and 17.3 µM, respectively.

In the case of `O=C1CCCC2=C1C(c1ccco1)c1cc3c(cc1N2)OCCO3` (stereo unspecified), the GI50 in experiment [5] worked out at 11.8 µM; in [6], 9.85 µM. The outcome in [7] was Active.

As to `O=C1CCCC2=C1C(c1cccc(Cl)c1)c1cc3c(cc1N2)OCCO3` (stereo unspecified), the GI50 in experiment [5] is 12.6 µM; in [6] it was 18.4 µM. In experiment [7], the result was Active.

`COc1cc([C@@H]2c3cc4c(cc3[C@H](O)[C@H]3COC(=O)[C@H]23)OCO4)cc(OC)c1OC` [PODOFILOX]: the GI50 in experiment [5] and in [6] was 0.013 µM in each case.

As to `O=C1CCCC2=C1C(c1ccc(F)c(F)c1)c1cc3c(cc1N2)OCCO3` (stereo unspecified), the GI50 in experiment [5] was found to be 7.94 µM; in [6] it was 5.44 µM.

As for `O=C1CCCC2=C1C(c1cccc(F)c1F)c1cc3c(cc1N2)OCCO3` (stereo unspecified), the results for the GI50 in [5] and in experiment [6] were 4.63 µM and 4.64 µM, respectively.

As to `COc1ccc(OC)c(C2C3=C(CCCC3=O)Nc3cc4c(cc32)OCCO4)c1` (stereo unspecified), the GI50 in [5] is 20.9 µM; in experiment [6], 12.2 µM.

In the case of `COc1cccc(C2C3=C(CCCC3=O)Nc3cc4c(cc32)OCCO4)c1` (stereo unspecified), the GI50 in experiment [5] was found to be 12.7 µM; in experiment [6], 11.9 µM. The result in [7] was Active.

Take `O=C1CCCC2=C1C(c1ccccc1)c1cc3c(cc1N2)OCCO3` (stereo unspecified): the GI50 in experiment [5] was 9.53 µM; in experiment [6], above 100 µM. Besides, in [7], the outcome was Active.

`COc1cc(C2C3=C(CCCC3=O)Nc3cc4c(cc32)OCCO4)cc(OC)c1OC` (stereo unspecified): the GI50 was determined as 4.15 µM in experiment [5] and 3.33 µM in experiment [6]. The result in [7] was Active.

For `COC(=O)Nc1nc2cc(C(=O)c3cccs3)ccc2[nH]1` [NOCODAZOLE], the inhibition entry in experiment [8], in experiment [9] and in experiment [10] was “Active” in each case. The results for the GI50 in experiment [5] and in [6] were 0.209 µM and 0.24 µM, respectively.

Regarding `CC[C@]1(O)C[C@H]2CN(CCc3c([nH]c4ccccc34)[C@@](C(=O)OC)(c3cc4c(cc3OC)N(C=O)[C@H]3[C@@](O)(C(=O)OC)[C@H](OC(C)=O)[C@]5(CC)C=CCN6CC[C@]43[C@@H]65)C2)C1` [VINCRISTINE], the results for the GI50 in experiment [5] and in [6] were 0.089 µM and 0.006 µM, respectively.

As for `O=C1CCCC2=C1C(c1cccc([N+](=O)[O-])c1)c1cc3c(cc1N2)OCCO3` (stereo unspecified), the GI50 in [11] amounted to 5.02 µM; in experiment [13] it was 7.16 µM; in experiment [14] it was 11.6 µM; in experiment [15], 7.05 µM; in experiment [5] it was 3.3 µM; in experiment [17], 1.29 µM. Further, the GI50 in experiment [20] was 17.7 µM; in [3], 1.74 µM; in experiment [23], 21.2 µM; in experiment [24], 9.45 µM; in [27] it was 4.23 µM; in experiment [4], 1.29 µM. Moreover, in [6], the GI50 is 2.01 µM. The result in experiment [12], in [7], in experiment [18], in experiment [21], in experiment [22] and in experiment [25] was Active. Besides, the result in experiment [28], in [29], in experiment [30] and in experiment [31] was Active. Besides, the inhibition result in experiment [8], in [26], in [9] and in experiment [10] was “Active” throughout. The RatioGI50 in [2] is recorded as 1.35. Besides, the inhibition entry in experiment [16] was “inactive”. Further, the Activity result in experiment [19] is “Dose-Dependent Effect”.
